Assay results reported in US11773063B1, “Pharmaceutically acceptable salts and compositions thereof” (priority 2022, dated 2023).
Structures can show the parent of a compound that is named as a salt.

Columns and labels:
[1] = Dynamic Vapor Sorption (DVS), salt screen and scale-up salts; format: physicochemical; details: for moisture absorption at 70% RH / moisture absorption at 80% RH / water uptake up to 60% RH: first sorption isotherm; for moisture absorption at 70% RH / moisture absorption at 80% RH / water uptake up to 60% RH / deliquescence during DVS / hygroscopicity class: 25° C.; for deliquescence during DVS: high RH; for hygroscopicity class: DVS
Experimental: Dynamic Vapor Sorption (DVS)
DVS analyses were performed on TA Instrument DVS Q5000. Samples were added to a pre-tared metallised quartz crucible and run at 25° C. from 40% RH to 90% RH, down to zero and back to 40%. This cycle was repeated in increments of 10% RH.

[2] = Thermo-Gravimetric Analysis (TGA), thermal stability; details: for thermal stability up to (TGA): nitrogen
Experimental: Thermo—Gravimetric Analysis (TGA)
TGA thermograms were obtained with a TA Instrument Discovery 550 in Al pans. The heating rate used was 10° C./min linear ramp from 25 to 400° C. with a nitrogen purging at a rate of 60 ml/min. TGA thermograms were analysed using TRIOS software.

[3] = format: physicochemical; details: 40° C./75% RH, three days
Experimental: Physical Stability of Salts
Physical stability stress tests were conducted on generated crystalline salts at controlled temperature and relative humidity. The powder samples were stored at 40° C./75% RH for three days. After this time samples were analysed by XRPD to see whether the physical state of salts changed during the storage.

[4] = Polymorphism screen of hydrochloride and benzoate salts: thermal cycling, evaporation, antisolvent addition, cooling (XRPD); format: physicochemical
Experimental: Twenty five of the lyophilised samples were treated with solvent and thermally cycled between ambient and 40° C. with four hours spent under each condition. After three days and solids were isolated by centrifuge filtration and analysed by XRPD.
(§1) Twelve samples of the lyophilised material were treated with a minimal volume (ca 0.5 ml) of warm solvent, syringe filtered through a 0.22 µm filter and added to a clean HPLC vial and allowed to evaporate at RT. The solvents used and XRPD results following evaporation are detailed in the Table below:
as §1, with “micrometre” for “µm”
For antisolvent additions thirteen samples of the lyophilised material were dissolved in a small amount of hot solvent (^˜0.5 ml). […] A large excess of antisolvent was then added, the vials sealed. After storage at RT overnight, and samples where no solid had been produced were first cooled to 4° C. for ˜24 hrs, and again if no solid was produced, they were cooled to −18° C. Any solids were isolated by centrifuge filtration and analysed by XRPD.
For the cooling experiments twelve samples of the lyophilised material were dissolved in a small amount of hot solvent (^˜[…]) and syringe filtered through a 0.22 μm filter into a clean HPLC vial. Samples were allowed to cool to RT, and if no solid was produced to 4° C. and then to −18° C. Solids were isolated by centrifuge filtration and analysed by XRPD.

[5] = Solubility assessment in four different media; format: physicochemical; details: four media: SNF, pH 1.2, pH 4.5 and pH 6.8 media, 37 °C, aqueous buffer, thermodynamic from solid; four different media
Experimental: Solubility assessments of 5-MeO-DMT oxalate, hydrobromide fumarate and benzoate were performed in four different media: […]

[6] = DVS double-cycle experiment (Example 3); format: physicochemical
[7] = Storage at 40° C./75% RH and 25° C./97% RH for 7 days, XRPD and HPLC (Example 3); format: physicochemical
Experimental: FIG. 128. XRPD diffractogram overlay of 5-MeO-DMT Phosphate Pattern 1 before and after storage at 25° C./97% RH and 40° C./75% RH for 7 days.
FIG. 139. XRPD diffractogram overlay of 5-MeO-DMT Tartrate Pattern 1 before and after storage at 25° C./97% RH and 40° C./75% RH for 7 days.
The sample is classed as slightly hygroscopic with a total reversible mass change of 0.3 wt. % between 0-90% RH. The DVS isotherm and DVS kinetic plot can be seen in FIGS. 124 and 125, respectively. The solid form was unchanged after a double-cycle experiment, the XRPD analysis confirming this can be seen in FIG. 126.
The sample is classed as slightly hygroscopic with a total reversible mass change of 0.6 wt. % between 0-90% RH (FIG. 135). The solid-form was unchanged after the double-cycle experiment (FIG. 136).

[8] = Polymorph assessment, slurry maturation in 10 solvents between 5 and 50° C.; format: physicochemical; set-up: key to Observation at 50° C. / Observation at 5° C.: ✓ = solution; ✓/X = turbid solution; X = suspension; details: 5-MeO-DMT phosphate, input DR-2186-45-01 (PHO Pattern 1+Extra Peaks), 20 mg in 10 volumes; solvent per sample: -01 MeOH, -02 Acetone, -03 CAN, -04 IPA:Water 9:1, -05 2-MeTHF, -06 EtOAc, -07 Ethanol, -08 Toluene, -09 MEK, -10 TBME
Experimental: (§2) DR-2186-45-01 (20 mg, PHO Pattern 1+Extra Peaks) was weighed into 10 HPLC vials. To this was added 10 volumes (200 μL) of solvent, a stirrer bar and the samples heated to 50° C. on a Polar Bear heat/cool block (400 RPM). After holding at 50° C. for 30 minutes and observation was made and the samples cooled to 5° C. where a further observation was made. All samples were than subjected to heat/cool cycles between 5 and 50° C. holding for 4 hours at each temperature for 24 hours.
A polymorph assessment was carried out in 10 different solvents using PHO Pattern 1+extra peaks as the input material, maturating a slurry of the salt between 5° C. and 50° C. for 24 hours. The results of the XRPD analysis of the samples can be seen in FIG. 118. The isolated solid was the same as the input material in all cases other than MeOH.
as §2, with “DR-2186-46-01” for “DR-2186-45-01”, “TAR” for “PHO”, “1)” for “1+Extra Peaks)”
A polymorph assessment was carried out in 10 different solvents, maturating a slurry of the salt between 5° C. and 50° C. for 24 hours.

COc1ccc2[nH]cc(CCN(C)C)c2c1 [Benzenesulfonate salt, 5-MeO-DMT benzenesulfonate]
moisture absorption at 70% RH [1]: 7 % w/w
moisture absorption at 80% RH [1]: 14 % w/w
water uptake up to 60% RH [1]: 1.2 % w/w
deliquescence during DVS [1]: begins to deliquesce
thermal stability up to (TGA) ([2]; 10° C./min): 250 °C

COc1ccc2[nH]cc(CCN(C)C)c2c1.O=C(O)CC(O)C(=O)O [Malate salt, 5-MeO-DMT malate]
thermal stability up to (TGA) ([2]; 10° C./min): around 170 °C
crystalline form after storage (XRPD) [3]: conversion to a “gum” material

COc1ccc2[nH]cc(CCN(C)C)c2c1.O=C(O)c1ccccc1 [benzoate salt, 5-MeO-DMT benzoate]
XRPD Result ([4]; evaporation at RT of lyophilised benzoate salt from 1-PrOH (DJP2202-010-02)): Oil
XRPD Result ([4]; evaporation at RT of lyophilised benzoate salt from EtOH (DJP2202-010-05)): Oil
XRPD Result ([4]; evaporation at RT of lyophilised benzoate salt from IPA (DJP2202-010-06)): Pattern 4
XRPD Result ([4]; evaporation at RT of lyophilised benzoate salt from IPAc (DJP2202-010-10)): Pattern 2
XRPD Result ([4]; evaporation at RT of lyophilised benzoate salt from MEK (DJP2202-010-11)): Pattern 4
XRPD Result ([4]; evaporation at RT of lyophilised benzoate salt from MIBK (DJP2202-010-04)): Oil
XRPD Result ([4]; evaporation at RT of lyophilised benzoate salt from MeCN (DJP2202-010-12)): Pattern 4
XRPD Result ([4]; evaporation at RT of lyophilised benzoate salt from THF (DJP2202-010-07)): Pattern 4
XRPD Result ([4]; evaporation at RT of lyophilised benzoate salt from chlorobenzene (DJP2202-010-09)): Pattern 4
XRPD Result ([4]; evaporation at RT of lyophilised benzoate salt from dioxane (DJP2202-010-08)): Pattern 4
solubility [5]: ≥ 100 mg/mL

COc1ccc2[nH]cc(CCN(C)C)c2c1.O=P(O)(O)O [DR-2186-48-01]
GVS hygroscopicity class (European Pharmacopeia definitions) [6]: slightly hygroscopic (based on European Pharmacopeia (Pharmaceuticals that pick up between 0.2% and 2.0% moisture at 80% RH are considered slightly hygroscopic)
GVS total mass change as mol eq. water ([6]; from 0-90% RH): 0.06 mol eq. water
GVS total mass change ([6]; from 0-90% RH, double cycle): 0.34 wt. %
TGA decomposition onset [2]: 130-170 °C Decomposition onset from 180 °C
TGA further mass lost during the melt ([2]; 130-170° C.): further 0.95% (0.1 mol eq. MeOH) was lost during the melt,
TGA mass loss ([2]; from 40-125° C.): 0.4 wt. % (0.04 mol. eq. MeOH) mass loss from 40-125 °C A
Static Storage 7 days - 25° C./97% RH, XRPD ([7]; 25° C./97% RH): XRPD - PHO Pattern 1
Static Storage 7 days - 25° C./97% RH, HPLC ([7]; 25° C./97% RH, HPLC purity): HPLC - 98.0%
Static Storage 7 days - 40° C./75% RH, XRPD ([7]; 40° C./75% RH): XRPD - PHO Pattern 1
Static Storage 7 days - 40° C./75% RH, HPLC ([7]; 40° C./75% RH, HPLC purity): HPLC - 98.1%

COc1ccc2[nH]cc(CCN(C)C)c2c1 [Tosylate salt, 5-MeO-DMT tosylate]
change of crystalline form during the DVS experiment (DVS / post-DVS XRPD) [1]: did not undergo any solid-state changes
hygroscopicity class [1]: slightly hygroscopic (Pharmaceuticals that pick up between 0.2% and 2.0% moisture at 80% RH are considered slightly hygroscopic)
crystalline form after storage (XRPD) [3]: identical XRPD pattern as the input material

COc1ccc2[nH]cc(CCN(C)C)c2c1 [Tartrate salt, 5-MeO-DMT tartrate]
change of crystalline form during the DVS experiment (DVS / post-DVS XRPD) [1]: did not undergo any solid form transformation
hygroscopicity class [1]: moderately hygroscopic (Pharmaceuticals that pick up between 2.0% and 15.0% moisture at 80% RH are considered moderately hygroscopic)
hygroscopicity class ([1]; listed as tartrate salt): moderately hygroscopic (Pharmaceuticals that pick up between 2.0% and 15.0% moisture at 80% RH are considered moderately hygroscopic)
thermal stability up to (TGA) ([2]; 10° C./min): around 170 °C
crystalline form after storage (XRPD) [3]: No change in the crystalline form

COc1ccc2[nH]cc(CCN(C)C)c2c1.O=P(O)(O)O [DR-2186-52-02]
Observation at 5° C. [8]: X
Observation at 50° C. [8]: X

COc1ccc2[nH]cc(CCN(C)C)c2c1 [Phosphate Pattern 1, 5-MeO-DMT phosphate]
total reversible mass change between 0-90% RH ([6]; DVS): 0.3 wt. %

COc1ccc2[nH]cc(CCN(C)C)c2c1 [glycolate salt, 5-MeO-DMT glycolate]
moisture absorption at 70% RH [1]: 11 % w/w
moisture absorption at 80% RH [1]: 33 % w/w
water uptake up to 60% RH [1]: 2.3 % w/w
deliquescence during DVS [1]: begins to deliquesce
thermal stability up to (TGA) ([2]; 10° C./min): around 155 °C

COc1ccc2[nH]cc(CCN(C)C)c2c1 [Phosphate salt, 5-MeO-DMT phosphate]
change of crystalline form during the DVS experiment (DVS / post-DVS XRPD) [1]: no evidence of form change
crystalline form after storage (XRPD) [3]: did not undergo any transformation

COc1ccc2[nH]cc(CCN(C)C)c2c1.Cl [Hydrochloride pattern 2, 5-MeO-DMT hydrochloride]
start of decomposition / complete mass loss (TGA) ([2]; 10° C./min, hydrochloride): around 256 °C
XRPD Result ([4]; hydrochloride salt, solid isolated after thermal cycle between ambient and 40° C., three days, solvent per experiment: -01 1,4-Dioxane, -02 1-Propanol, -03 2-Butanol, -05 2-Methyltetrahydrofuran, -06 2-Propanol, -07 Acetone, -08 Acetonitrile, -09 Anisole, -10 Chlorobenzene, -11 Ethanol, -12 Ethyl acetate, -13 Isopropyl acetate, -14 Methanol, -15 Propyl acetate, -16 Methylethyl ketone, -20 iso-Prop, listed as DJP2202-007-01, hydrochloride): Pattern 2
3-day Observations ([4]; hydrochloride salt, thermally cycled between ambient and 40° C., three days, solvent per experiment: -01 1,4-Dioxane, -02 1-Propanol, -03 2-Butanol, -04 2-Ethoxyethanol, -05 2-Methyltetrahydrofuran, -06 2-Propanol, -07 Acetone, -08 Acetonitrile, -09 Anisole, -10 Chlorobenzene, -11 Ethanol, -12 Ethyl acetate, -13 Isopropyl acetate, -14 Methanol, -15 Propyl acetate, -16 Methylethyl ketone, -17 Forma, listed as DJP2202-007-01, hydrochloride): solid mass
Initial Observations ([4]; thermal cycle of lyophilised hydrochloride salt (~40 mg), solvent added, solvent per experiment: -01 1,4-Dioxane, -02 1-Propanol, -03 2-Butanol, -04 2-Ethoxyethanol, -05 2-Methyltetrahydrofuran, -06 2-Propanol, -07 Acetone, -08 Acetonitrile, -09 Anisole, -10 Chlorobenzene, -11 Ethanol, -12 Ethyl acetate, -13 Isopropyl acetate, -14 Methanol, -15 Propyl acetate, -16 Methylethyl ketone, -17 Formamide, listed as DJP2202-007-01, hydrochloride): no change
